Read-outs that look alike come from different tables or passages of the source.
Key:
HRV-2 [1] = experiment: Cytopathic effect inhibition assay (MTT), HRV-2 in HeLa cells; format: cell-based, human rhinovirus; settings: read-out: IC50 (95% CL) HRV-2
Description: (§1) Monolayers of HeLa and MRC5 cells were seeded onto a 96-well culture plate as stated previously. Subsequently, 90 μL media containing several different concentrations (1–1000 μg/mL) of each test material in DMSO was put into the wells, and then 10 μL of 10×TCID50 of the virus stock was added to produce an appropriate CPE within 2 days after infection. Ribavirin served as a reference control and was similarly prepared. Negative controls consisted of the DMSO solution. Viral inhibition rate (VIR) (%) was calculated according to the formula [21], VIR = (A tV—A cV)/(A cd—A cV) × 100, where A tV is the optical density measured with a given concentration of the test compound in HRV infected cells; A cV is the optical density measured for the control untreated HRV infected cells; A cd is the optical density measured for the control untreated HRV uninfected cells.
(§2) The CC50 and IC50 values were determined using GraphPad Prism 5 software program (GraphPad Software, La Jolla, CA). […] The selectivity index (SI) was determined as the ratio of CC50 to IC50 [23]. All data represent the mean ± SD of duplicate or triplicate samples of three independent experiments. Statistical analyses were carried out using SAS 9.13 program (SAS Institute, Cary, NC). Data from two groups were analyzed by a Student’s t-test, and multiple groups were analyzed by a one-way analysis of variance and Bonferroni multiple comparison post-test.

HRV-2 [2] = experiment: Cytopathic effect inhibition assay (MTT), HRV-2 in MRC5 cells; format: cell-based, human rhinovirus; settings: read-out: IC50 (95% CL) HRV-2
Description: as §1, §2

HRV-4 [3] = experiment: Virus titration assay, HRV-4 in MRC5 cultures; format: cell-based, human rhinovirus; settings: PGG 20 μg/mL, PA 100 μg/mL, ribavirin 100 μg/mL; for Log (TCID50/mL) ± SE HRV-4: infected MRC5 cultures, 48 h, infected untreated control 3.81; for Reduction of virus replication (Log (TCID50/mL)) ± SE HRV-4: vs infected untreated control
Description: Virus titers in infected MRC-5 cultures treated with PA and PGG were measured as TCID50 using MTT-based titration method. In brief, MRC5 cells were seeded at 10^5 cells/mL in a 6-well plate. After 24 h, the cell monolayers were treated with 100 μg/mL PA or 20 μg/mL PGG and infected with HRV-2 or HRV-4 in a concentration of 10×TCID50/mL. Uninfected untreated and infected untreated cultures were included in the assay. The 100 μg/mL of ribavirin was used as a reference control. After 48 h incubation at 37°C, the cultures were frozen and thawed at −80°C/25°C. Cell debris was removed by centrifugation (2000 rpm) and the virus supernatants were collected. Virus titration was then performed in HeLa cell cultures. Initially, a 1:10 dilution of each supernatant was prepared followed by 10 serial 2-fold-dilutions, and added to HeLa cell monolayers. After 48 h, cell mortality was measured using an MTT assay stated previously. Graphs were built by plotting dead cell percentages toward virus dilution factors of each virus supernatant. The 50% infectivity point was calculated through a linear regression analysis of the curve.

TNF = TNF mRNA expression, qRT-PCR in MRC5; format: cell-based, human; settings: MRC5, 2 days; 100 μg/mL PA, 20 μg/mL PGG; vs untreated cells
Description: To evaluate the level of gene expression, real-time qRT-PCR with SYBR Green dye was carried out. HRV-2 or HRV-4 infected and noninfected cultures of MRC5 monolayers grown in 25 cm^2 cell culture flasks (Corning, NY) were treated with 100 μg/mL PA or 20 μg/mL PGG. After incubation at 37°C and 5% CO2 for 2 days, total RNA was extracted from the culture cells using the RNeasy Plus Mini Kit (Qiagen, Hilden, Germany) according to the manufacturer’s instructions. Contaminated genomic DNA was removed using RQ1 RNase-free DNase (Promega, Madison, WI). Complementary DNA (cDNA) was synthesized using 1 μg total RNA through a reverse transcription reaction using the SuperScript First-Strand Synthesis Kit (Invitrogen, Carlsbad, CA). […] The PCR conditions were as follows: 50°C for 2 min, 95°C for 10 min, and then 50 cycles of 95°C for 15 s and either 60°C [β2-microglobulin (B2M), interleukin (IL)-6, IL-8, LDLR, ICAM-1, HRV-2, and HRV-4] or 58°C (B2M and IL-1β) or 55°C [B2M, Toll-like receptor 3 (TLR3), tumor necrosis factor (TNF), and interferon beta (IFNβ)] for 30 s. mRNA expression level of target gene was normalized to mRNA expression level for the housekeeping gene B2M and analyzed by the 2^–ΔΔCT method using StepOne Software v2.1 and DataAssist Software (Applied Biosystems). […]

HRV-4 particles = experiment: Infectivity of HRV-4 particles (preincubation of virus); format: cell-based, human rhinovirus; settings: MRC5 cells, 2 days; for inhibition at 100 µg/mL / inhibition at 20 µg/mL: Human rhinovirus sp.
Description: The effects of the test compounds on the infectivity of HRV-4 particles were elucidated as described previously by Choi et al.. […] HRV-4 was preincubated with 100 μg/mL PA, 20 μg/mL PGG, or 100 μg/mL ribavirin for 1 h at 4°C. Monolayers of MRC5 cells were infected with the pretreated or untreated HRV-4 for 1 h at 37°C. Unbound virus was removed by washing the wells with PBS twice, and then cells were incubated in fresh medium supplemented with or without test compounds at 37°C. After 2 days, MTT test and antiviral activity were carried out as stated previously.

[4] = system: two HRVs (HRV-2 and HRV-4); experiment: Cytopathic effect inhibition assay, summary over both serotypes; format: cell-based, human rhinovirus; settings: Rhinovirus A; range over HRV-2 and HRV-4, HeLa and MRC5 cells; read-out: IC50 toward two HRVs (range)
Description: as §1, §2

HRV-4 [5] = experiment: Cytopathic effect inhibition assay (MTT), HRV-4 in MRC5 cells; format: cell-based, human rhinovirus; settings: read-out: IC50 (95% CL) HRV-4
Description: as §1, §2

[6] = Rhinovirus A, HRV2, MRC5, HRV-2 in MRC5 cells
[7] = HRV4, 48 h, 100 μg/mL PA, 20 μg/mL PGG, 100 μg/mL ribavirin, read-out: inhibition rate, continuous presence during infection
[8] = HRV4, virus preincubated 1 h at 4°C with 100 μg/mL PA, 20 μg/mL PGG or 100 μg/mL ribavirin, read-out: inhibition rate, preincubation of HRV-4 particles
[9] = Human rhinovirus sp., HRV4, MRC5, HRV-4 in MRC5 cells

| IC50 (HRV-2 [1]; Rhinovirus A, HRV2, HeLa) [µM] | IC50 (HRV-2 [1]) [µM] | Compound | IC50 (HRV-2 [2]; HRV-2 in MRC5 cells) [µM] | IC50 (HRV-2 [2]; [6]) [µM] | reduction of the HRV-4 titer (HRV-4 [3]) [%] | Log (TCID50/mL) ± SE HRV-4 (HRV-4 [3]) | Reduction of virus replication (Log (TCID50/mL)) ± SE HRV-4 (HRV-4 [3]) | effect on TNF mRNA expression (TNF) | inhibition at 100 µg/mL (HRV-4 particles; [7]) [%] | inhibition at 100 µg/mL (HRV-4 particles; [8]) [%] | IC50 [4] [µM] | IC50 (HRV-4 [5]; HRV-4 in MRC5 cells) [µM] | IC50 (HRV-4 [5]; [9]) [µM] | inhibition at 20 µg/mL (HRV-4 particles; [7]) [%] | inhibition at 20 µg/mL (HRV-4 particles; [8]) [%] | inhibition rate, preincubation of HRV-4 particles (HRV-4 particles; virus preincubated 1 h at 4°C with 100 μg/mL PA, 20 μg/mL PGG or 100 μg/mL ribavirin) [%] |
| --- | --- | --- | --- | --- | --- | --- | --- | --- | --- | --- | --- | --- | --- | --- | --- | --- |
| 608 | 608 | COc1ccc(C(C)=O)c(O)c1 [PA, paeonol] | 503 | 503 | 27.6 | 2.76 ± 0.024 b Log (TCID50/mL) | 1.05 ± 0.023 Log (TCID50/mL) | did not remarkably reduce | 57.2 | 10.6 | 492 to 608 | 492 | 492 | – | – | – |
| 304 | 304 | NC(=O)c1ncn([C@@H]2O[C@H](CO)[C@@H](O)[C@H]2O)n1 [Ribavirin, reference compound] | 240 | 240 | 36.0 | 2.44 ± 0.024 a Log (TCID50/mL) | 1.37 ± 0.023 Log (TCID50/mL) | – | 58.2 | – | 240 to 324 | – | 312 | – | – | 10.0 |

| Compound | IC50 (HRV-2 [1]; Rhinovirus A, HRV2, HeLa) [µM] | IC50 (HRV-2 [1]) [µM] | IC50 (HRV-2 [2]; HRV-2 in MRC5 cells) [µM] | IC50 (HRV-2 [2]; [6]) [µM] | reduction of the HRV-4 titer (HRV-4 [3]) [%] | Log (TCID50/mL) ± SE HRV-4 (HRV-4 [3]) | Reduction of virus replication (Log (TCID50/mL)) ± SE HRV-4 (HRV-4 [3]) | effect on TNF mRNA expression (TNF) | inhibition at 100 µg/mL (HRV-4 particles; [7]) [%] | inhibition at 100 µg/mL (HRV-4 particles; [8]) [%] | IC50 [4] [µM] | IC50 (HRV-4 [5]; HRV-4 in MRC5 cells) [µM] | IC50 (HRV-4 [5]; [9]) [µM] | inhibition at 20 µg/mL (HRV-4 particles; [7]) [%] | inhibition at 20 µg/mL (HRV-4 particles; [8]) [%] | inhibition rate, preincubation of HRV-4 particles (HRV-4 particles; virus preincubated 1 h at 4°C with 100 μg/mL PA, 20 μg/mL PGG or 100 μg/mL ribavirin) [%] |
| --- | --- | --- | --- | --- | --- | --- | --- | --- | --- | --- | --- | --- | --- | --- | --- | --- |
| O=C(OC[C@H]1O[C@@H](OC(=O)c2cc(O)c(O)c(O)c2)[C@H](OC(=O)c2cc(O)c(O)c(O)c2)[C@@H](OC(=O)c2cc(O)c(O)c(O)c2)[C@@H]1OC(=O)c1cc(O)c(O)c(O)c1)c1cc(O)c(O)c(O)c1 [PGG, 1,2,3,4,6-penta-O-galloyl-β-D-glucopyranose] | 11.6 | 11.6 | 17.9 | 17.9 | 20.7 | 3.04 ± 0.038 c Log (TCID50/mL) | 0.79 ± 0.038 Log (TCID50/mL) | did not remarkably reduce | – | – | 11.6 to 17.9 | 17.3 | 17.3 | 54.5 | 11.2 | – |

— paper PMC4393083, “Antiviral Activity and Possible Mechanism of Action of Constituents Identified in Paeonia lactiflora Root toward Human Rhinoviruses” (PLoS ONE, 2015)
